Patent publication US20230382911A1 (Hoffmann-La Roche Inc., priority 2021, published 2023)
pIC50: −log10 of the molar value.

Molecular target: Recombinant human Mat2a (Homo sapiens (Human), UniProt P31153)
Assay: Determination of Mat2A activity: 384 well format absorbance-based Mat2A inhibition assay
Assay type: biochemical
Settings: 12.5 nM Mat2A, 100 μM ATP and Methionine, 2% DMSO, 120 minutes at RT, Biomol Green, absorbance at 635 nm
Method: Determination of Mat2A Activity
Measurement of Mat2A inhibition is performed in 384 well format absorbance-based assay.
Recombinant human Mat2a (12.5 nM) and serial diluted compounds in DMSO (range of concentrations from 10 μM to […]) or controls (DMSO) are incubated for 15 minutes at room temperature (RT) in assay buffer containing 50 mM HEPES pH 7.5, 50 mM KCl, 50 mM MgCl2, 0.01% Tween 20 and 10 mM DTT. The reaction is initiated by the addition of the combined substrates ATP and Methionine, each at a final concentration of 100 μM. Final assay condition are 12.5 nM Mat2A, 100 μM ATP and Methionine Substrates and 2% DMSO. After 120 minutes of incubation at RT, the reaction is stopped by the addition of Biomol Green. The absorbance signal is measured at λ=635 nm with a multiplate reader (BMG Pherastar reader or equivalent) after 30 min of equilibration at RT.

Sequence of Recombinant human Mat2a (P31153 whole entry): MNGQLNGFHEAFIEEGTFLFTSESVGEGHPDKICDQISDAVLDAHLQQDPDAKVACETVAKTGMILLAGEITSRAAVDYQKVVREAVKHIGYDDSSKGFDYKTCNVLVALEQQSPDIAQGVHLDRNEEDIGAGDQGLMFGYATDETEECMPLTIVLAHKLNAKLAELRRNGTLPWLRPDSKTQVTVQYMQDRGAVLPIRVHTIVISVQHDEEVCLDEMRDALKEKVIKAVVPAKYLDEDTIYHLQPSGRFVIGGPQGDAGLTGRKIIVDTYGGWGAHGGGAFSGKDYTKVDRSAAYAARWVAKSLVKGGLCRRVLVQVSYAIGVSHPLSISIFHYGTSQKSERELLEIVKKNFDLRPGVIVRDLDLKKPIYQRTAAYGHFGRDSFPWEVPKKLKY

pIC50 | Structure (SMILES)
6.54 | COC1CCCCC1C(=O)n1nc(N)c2ccc(C3CC3)nc21 (stereo not drawn) [Example 37, (3-amino-6-cyclopropyl-1H-pyrazolo[3,4-b]pyridin-1-yl)(2-methoxycyclohexyl)methanone]
6.92 | COc1ccccc1C(=O)n1nc(N)c2cc3c(nc21)CC(C)CC3 (stereo not drawn) [Example 38, (3-amino-7-methyl-5,6,7,8-tetrahydro-1H-pyrazolo[3,4-b]quinolin-1-yl)(2-methoxyphenyl)methanone]
7.49 | COc1ccccc1C(=O)n1nc(N)c2ccc(C3CC3(F)F)nc21 (stereo not drawn) [Example 40, (3-amino-6-(2,2-difluorocyclopropyl)-1H-pyrazolo[3,4-b]pyridin-1-yl)(2-methoxyphenyl)methanone]
6.82 | Cc1ccccc1C(=O)n1nc(N)c2ccc(C3CC3(F)F)nc21 (stereo not drawn) [Example 41, (3-amino-6-(2,2-difluorocyclopropyl)-1H-pyrazolo[3,4-b]pyridin-1-yl)(o-tolyl)methanone]
7.04 | COc1c(F)cccc1C(=O)n1nc(N)c2ccc(C3CC3(F)F)nc21 (stereo not drawn) [Example 45, (3-amino-6-(2,2-difluorocyclopropyl)-1H-pyrazolo[3,4-b]pyridin-1-yl)(3-fluoro-2-methoxyphenyl)methanone]
7.26 | COc1c(F)cccc1C(=O)n1nc(N)c2cc(F)c(N3CCCC3)nc21 [Example 46, (3-amino-5-fluoro-6-(pyrrolidin-1-yl)-1H-pyrazolo[3,4-b]pyridin-1-yl)(3-fluoro-2-methoxyphenyl)methanone]
7.60 | COc1c(F)cccc1C(=O)n1nc(N)c2ccc(C3=CCOC3)nc21 [Example 47, [3-amino-6-(2,5-dihydrofuran-3-yl)pyrazolo[3,4-b]pyridin-1-yl]-(3-fluoro-2-methoxyphenyl)methanone]
6.89 | Cc1ccccc1C(=O)n1nc(N)c2ccc(C3(C)CC3)nc21 [Example 48, (3-amino-6-(1-methylcyclopropyl)-1H-pyrazolo[3,4-b]pyridin-1-yl)(o-tolyl)methanone]
7.66 | Cc1ncccc1C(=O)n1nc(N)c2ccc(C3CC3(F)F)nc21 (stereo not drawn) [Example 49, (3-amino-6-(2,2-difluorocyclopropyl)-1H-pyrazolo[3,4-b]pyridin-1-yl)(2-methylpyridin-3-yl)methanone]
6.80 | CC1OCCC1C(=O)n1nc(N)c2ccc(C3CC3(F)F)nc21 (stereo not drawn) [Example 50, (3-amino-6-(2,2-difluorocyclopropyl)-1H-pyrazolo[3,4-b]pyridin-1-yl)(2-methyltetrahydrofuran-3-yl)methanone]
6.68 | Cc1c(F)cccc1C(=O)n1nc(N)c2ccc(C3CC3)nc21 [Example 54, (3-amino-6-cyclopropyl-1H-pyrazolo[3,4-b]pyridin-1-yl)(3-fluoro-2-methylphenyl)methanone]
6.49 | Cc1cccc(C(=O)n2nc(N)c3ccc(C4CC4)nc32)c1C [Example 55, (3-amino-6-cyclopropyl-1H-pyrazolo[3,4-b]pyridin-1-yl)(2,3-dimethylphenyl)methanone]
6.37 | Nc1nn(C(=O)C2CCCCC2)c2nc(C3CC3)ccc12 [Example 56, (3-amino-6-cyclopropyl-1H-pyrazolo[3,4-b]pyridin-1-yl)(cyclohexyl)methanone]
6.96 | COc1c(F)cccc1C(=O)n1nc(N)c2ccc(C3CC3)nc21 [Example 57, (3-amino-6-cyclopropyl-1H-pyrazolo[3,4-b]pyridin-1-yl)(3-fluoro-2-methoxyphenyl)methanone]
6.52 | COc1cc(F)ccc1C(=O)n1nc(N)c2ccc(C3CC3)nc21 [Example 58, (3-amino-6-cyclopropyl-1H-pyrazolo[3,4-b]pyridin-1-yl)(4-fluoro-2-methoxyphenyl)methanone]
7.43 | CCc1ccccc1C(=O)n1nc(N)c2ccc(C3CC3)nc21 [Example 60, (3-amino-6-cyclopropyl-1H-pyrazolo[3,4-b]pyridin-1-yl)(2-ethylphenyl)methanone]
6.89 | Nc1nn(C(=O)c2ccccc2OC(F)F)c2nc(C3CC3)ccc12 [Example 61, (3-amino-6-cyclopropyl-1H-pyrazolo[3,4-b]pyridin-1-yl)(2-(difluoromethoxy)phenyl)methanone]
6.46 | Cc1ocnc1C(=O)n1nc(N)c2ccc(C3CC3)nc21 [Example 62, (3-amino-6-cyclopropyl-1H-pyrazolo[3,4-b]pyridin-1-yl)(5-methyloxazol-4-yl)methanone]
6.89 | Cc1ncsc1C(=O)n1nc(N)c2ccc(C3CC3)nc21 [Example 63, (3-amino-6-cyclopropyl-1H-pyrazolo[3,4-b]pyridin-1-yl)(4-methylthiazol-5-yl)methanone]
7.39 | CC1OCCC1C(=O)n1nc(N)c2ccc(C3CC3)nc21 (stereo not drawn) [Example 64, (3-amino-6-cyclopropyl-1H-pyrazolo[3,4-b]pyridin-1-yl)(2-methyltetrahydrofuran-3-yl)methanone]
7.27 | Cc1c(C#N)cccc1C(=O)n1nc(N)c2ccc(C3CC3)nc21 [Example 66, 3-(3-amino-6-cyclopropyl-1H-pyrazolo[3,4-b]pyridine-1-carbonyl)-2-methylbenzonitrile]
7.31 | Nc1nn(C(=O)C2CCOCC2)c2nc(C3CC3)ccc12 [Example 67, (3-amino-6-cyclopropyl-1H-pyrazolo[3,4-b]pyridin-1-yl)(tetrahydro-2H-pyran-4-yl)methanone]
7.72 | Cc1ncccc1C(=O)n1nc(N)c2ccc(C3CC3)nc21 [Example 68, (3-amino-6-cyclopropyl-1H-pyrazolo[3,4-b]pyridin-1-yl)(2-methylpyridin-methylpyridine-3-yl)methanone]
7.10 | Nc1nn(C(=O)C2CCNC(=O)C2)c2nc(C3CC3)ccc12 (stereo not drawn) [Example 69, 4-(3-amino-6-cyclopropyl-1H-pyrazolo[3,4-b]pyridine-1-carbonyl)piperidin-2-one]
6.74 | COc1c(C)cccc1C(=O)n1nc(N)c2ccc(C3CC3)nc21 [Example 70, (3-amino-6-cyclopropyl-1H-pyrazolo[3,4-b]pyridin-1-yl)(2-methoxy-3-methylphenyl)methanone]
6.32 | COc1c(Cl)cccc1C(=O)n1nc(N)c2ccc(C3CC3)nc21 [Example 71, (3-amino-6-cyclopropyl-1H-pyrazolo[3,4-b]pyridin-1-yl)(3-chloro-2-methoxyphenyl)methanone]
7.43 | COc1c(C#N)cccc1C(=O)n1nc(N)c2ccc(C3CC3)nc21 [Example 72, 3-(3-amino-6-cyclopropyl-1H-cyclopropyl-1H-pyrazolo[3,4-b]pyridine-1-carbonyl)-2-methoxybenzonitrile]
6.74 | Nc1nn(C(=O)C2CCCOC2)c2nc(C3CC3)ccc12 (stereo not drawn) [Example 73, (3-amino-6-cyclopropyl-1H-cyclopropyl-1H-pyrazolo[3,4-b]pyridin-1-yl)(tetrahydro-2H-pyran-3-yl)methanone]
6.66 | Cc1nccnc1C(=O)n1nc(N)c2ccc(C3CC3)nc21 [Example 74, (3-amino-6-cyclopropyl-1H-pyrazolo[3,4-b]pyridin-1-yl)(3-methylpyrazin-2-yl)methanone]

Structure (SMILES) | pIC50
COc1ccccc1C(=O)n1nc(N)c2ccc(N3C4CCC3CC4)nc21 [Example 53, [3-amino-6-(7-azabicyclo[2.2.1]heptan-7-yl)pyrazolo[3,4-b]pyridin-1-yl]-(2-methoxyphenyl)methanone] | 6.62
